Results: the supplement of paper PMC11208160

Assay: recombinant UMI read abundance after kanamycin selection (control-corrected) (log10(CPM+1)); higher = more efficient recombination; extreme values may be limits of the assay; sequences stand for … in AGTGCAGAGAAAATCGGCCAGTTTTCTCTGCCTGCAGTCCGCATGCCGTGGGACCCCTTGGGTTCTAACCTGTTGCCTAGATTTATGCAGCGGACTGCCTTTCTCCCAAAGTGATAAACCGG…AGGTTGGTTTCACT; site = the 11-nt donor
Method: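 Pooled E. coli donor-specificity screen for the IS621 bridge recombinase. Each library member carries a reprogrammed 11-nt donor and a full-length LE bridge RNA expressed in cis from the natural promoter, with a paired donor-binding loop (8-nt LDG + 4-nt RDG) and a target-binding loop fixed to T5. It is co-electroporated with a T5 target plasmid; recombinase is induced with 0.07 mM IPTG and recombinants are selected on kanamycin. UMIs are counted as CPM, averaged over two biological replicates and corrected by the unselected control. Molecule = full bridge RNA written as DNA, built from the T5 scaffold: LDG = donor specificity nt 1-8, RDG = reverse complement of nt 8-11.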
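Note: IS621 bridge recombinase in Escherichia coli cells against a fixed T5 target plasmid.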

Sequence: ACCCATCCATGGACCGGTTTTCCCGGTAATCCGTATTTGAC (site ACCCATCCTGT)
- recombinant UMI read abundance (log10): 0.806

Sequence: ACCCATCCATGGACCGGTTTTCCCGGTAATCCGTATTTGAC (site ACGCATCCTGT)
- recombinant UMI read abundance (log10): 0

Sequence: ACCCATCCATGGACCGGTTTTCCCGGTAATCCGTATTTGAC (site ACTCATCCTGT)
- recombinant UMI read abundance (log10): 0

Sequence: ACCCCAACATGGACCGGTTTTCCCGGTAATCCGTATTTGTA (site ACCCCAACTTA)
- recombinant UMI read abundance (log10): 1.68

Sequence: ACCCGATCATGGACCGGTTTTCCCGGTAATCCGTATTTGAT (site ACCCGATCTAT)
- recombinant UMI read abundance (log10): 1.53

Sequence: ACCCGCTCATGGACCGGTTTTCCCGGTAATCCGTATTTGTC (site ACCCGCTCTGA)
- recombinant UMI read abundance (log10): 2.76

Sequence: ACCCGGGCATGGACCGGTTTTCCCGGTAATCCGTATTTGAC (site ACCCGGGCTGT)
- recombinant UMI read abundance (log10): 2.02

Sequence: ACCGAACCATGGACCGGTTTTCCCGGTAATCCGTATTTGGA (site ACCGAACCTTC)
- recombinant UMI read abundance (log10): 0.00378

Sequence: ACCGAATCATGGACCGGTTTTCCCGGTAATCCGTATTTGCA (site ACAGTATCTTG)
- recombinant UMI read abundance (log10): 0

Sequence: ACCGAATCATGGACCGGTTTTCCCGGTAATCCGTATTTGCA (site ACCGAATCTTG)
- recombinant UMI read abundance (log10): 2.16

Sequence: ACCGACGCATGGACCGGTTTTCCCGGTAATCCGTATTTGTT (site ACCGACGCTAA)
- recombinant UMI read abundance (log10): 0.786

Sequence: ACCGACTCATGGACCGGTTTTCCCGGTAATCCGTATTTGCC (site ACCGACTCTGG)
- recombinant UMI read abundance (log10): 1.78

Sequence: ACCGATCCATGGACCGGTTTTCCCGGTAATCCGTATTTGCA (site ACCGATCCTTG)
- recombinant UMI read abundance (log10): 0.164

Sequence: ACCGCTACATGGACCGGTTTTCCCGGTAATCCGTATTTGCG (site ACCGCTACTCG)
- recombinant UMI read abundance (log10): 1.01

Sequence: ACCGCTGCATGGACCGGTTTTCCCGGTAATCCGTATTTGGC (site ACCGCTGCTGC)
- recombinant UMI read abundance (log10): 2.08

Sequence: ACCGGAACATGGACCGGTTTTCCCGGTAATCCGTATTTGTG (site ACCGGAACTCA)
- recombinant UMI read abundance (log10): 1.41

Sequence: ACCGGGACATGGACCGGTTTTCCCGGTAATCCGTATTTGAG (site ACCGGGACTCT)
- recombinant UMI read abundance (log10): 1.23

Sequence: ACCGGTCCATGGACCGGTTTTCCCGGTAATCCGTATTTGCC (site ACCGGTCCTGG)
- recombinant UMI read abundance (log10): 0

Sequence: ACCGGTGCATGGACCGGTTTTCCCGGTAATCCGTATTTGAG (site ACCGGTGCTCT)
- recombinant UMI read abundance (log10): 1.35

Sequence: ACCGTATCATGGACCGGTTTTCCCGGTAATCCGTATTTGCT (site ACAGTATCTTG)
- recombinant UMI read abundance (log10): 0

Sequence: ACCGTATCATGGACCGGTTTTCCCGGTAATCCGTATTTGCT (site ACCGTATCTAG)
- recombinant UMI read abundance (log10): 2.39

Sequence: ACCGTATCATGGACCGGTTTTCCCGGTAATCCGTATTTGGT (site ACCGTATCTAC)
- recombinant UMI read abundance (log10): 1.32

Sequence: ACCTAAGCATGGACCGGTTTTCCCGGTAATCCGTATTTGGC (site ACCTAAGCTGC)
- recombinant UMI read abundance (log10): 2.22

Sequence: ACCTACCCATGGACCGGTTTTCCCGGTAATCCGTATTTGAC (site ACCTACCCTGT)
- recombinant UMI read abundance (log10): 0.183

Sequence: ACCTGATCATGGACCGGTTTTCCCGGTAATCCGTATTTGAT (site ACCTGATCTAT)
- recombinant UMI read abundance (log10): 0.427

Sequence: ACCTGCCCATGGACCGGTTTTCCCGGTAATCCGTATTTGTT (site ACCTGCCCTAA)
- recombinant UMI read abundance (log10): 0.188

Sequence: ACCTGGACATGGACCGGTTTTCCCGGTAATCCGTATTTGCA (site ACCTGGACTTG)
- recombinant UMI read abundance (log10): 1.82

Sequence: ACCTGGACATGGACCGGTTTTCCCGGTAATCCGTATTTGTG (site ACCTGGACTCA)
- recombinant UMI read abundance (log10): 0.502

Sequence: ACCTGGGCATGGACCGGTTTTCCCGGTAATCCGTATTTGTC (site ACCTGGGCTGA)
- recombinant UMI read abundance (log10): 0

Sequence: ACCTTAGCATGGACCGGTTTTCCCGGTAATCCGTATTTGAA (site ACCTTAGCTTT)
- recombinant UMI read abundance (log10): 0.29

Sequence: ACCTTAGCATGGACCGGTTTTCCCGGTAATCCGTATTTGGT (site ACCTTAGCTAC)
- recombinant UMI read abundance (log10): 0.271

Sequence: ACCTTCTCATGGACCGGTTTTCCCGGTAATCCGTATTTGGG (site ACCTTCTCTCC)
- recombinant UMI read abundance (log10): 0.00668

Sequence: ACCTTCTCATGGACCGGTTTTCCCGGTAATCCGTATTTGGG (site CCCTTCTCTCC)
- recombinant UMI read abundance (log10): 0.00967

Sequence: ACCTTCTCATGGACCGGTTTTCCCGGTAATCCGTATTTGGG (site GCCTTCTCTCC)
- recombinant UMI read abundance (log10): 0.00741

Sequence: ACCTTCTCATGGACCGGTTTTCCCGGTAATCCGTATTTGGG (site TCCTTCTCTCC)
- recombinant UMI read abundance (log10): 0.00341

Sequence: ACGAACTCATGGACCGGTTTTCCCGGTAATCCGTATTTGTC (site ACGAACTCTGA)
- recombinant UMI read abundance (log10): 2.03

Sequence: ACGAAGACATGGACCGGTTTTCCCGGTAATCCGTATTTGTA (site ACGAAGACTTA)
- recombinant UMI read abundance (log10): 2.82

Sequence: ACGAAGACATGGACCGGTTTTCCCGGTAATCCGTATTTGTA (site AGGAAGACTTG)
- recombinant UMI read abundance (log10): 0

Sequence: ACGAAGCCATGGACCGGTTTTCCCGGTAATCCGTATTTGGG (site ACGAAGCCTCC)
- recombinant UMI read abundance (log10): 0.0169

Sequence: ACGAAGCCATGGACCGGTTTTCCCGGTAATCCGTATTTGGG (site CCGAAGCCTCC)
- recombinant UMI read abundance (log10): 0.00571

Sequence: ACGAAGCCATGGACCGGTTTTCCCGGTAATCCGTATTTGGG (site GCGAAGCCTCC)
- recombinant UMI read abundance (log10): 0.0145

Sequence: ACGAAGCCATGGACCGGTTTTCCCGGTAATCCGTATTTGGG (site TCGAAGCCTCC)
- recombinant UMI read abundance (log10): 0.113

Sequence: ACGACGCCATGGACCGGTTTTCCCGGTAATCCGTATTTGCT (site ACGACGCCTAG)
- recombinant UMI read abundance (log10): 0

Sequence: ACGAGAACATGGACCGGTTTTCCCGGTAATCCGTATTTGCC (site ACGAGAACTGG)
- recombinant UMI read abundance (log10): 2.44

Sequence: ACGAGTTCATGGACCGGTTTTCCCGGTAATCCGTATTTGGA (site ACGAGTTCTTC)
- recombinant UMI read abundance (log10): 2.41

Sequence: ACGATAGCATGGACCGGTTTTCCCGGTAATCCGTATTTGTC (site ACGATAGCTGA)
- recombinant UMI read abundance (log10): 2.92

Sequence: ACGATGACATGGACCGGTTTTCCCGGTAATCCGTATTTGCA (site ACGATGACTTG)
- recombinant UMI read abundance (log10): 3.16

Sequence: ACGATGACATGGACCGGTTTTCCCGGTAATCCGTATTTGCA (site AGGAAGACTTG)
- recombinant UMI read abundance (log10): 0.907

Sequence: ACGCACGCATGGACCGGTTTTCCCGGTAATCCGTATTTGGG (site AAGCACGCTCC)
- recombinant UMI read abundance (log10): 0.0265

Sequence: ACGCACGCATGGACCGGTTTTCCCGGTAATCCGTATTTGGG (site ACGCACGCTCC)
- recombinant UMI read abundance (log10): 0.00911

Sequence: ACGCACGCATGGACCGGTTTTCCCGGTAATCCGTATTTGGG (site AGGCACGCTCC)
- recombinant UMI read abundance (log10): 0.00698

Sequence: ACGCACGCATGGACCGGTTTTCCCGGTAATCCGTATTTGGG (site ATGCACGCTCC)
- recombinant UMI read abundance (log10): 0.12

Sequence: ACGCCACCATGGACCGGTTTTCCCGGTAATCCGTATTTGGG (site ACGCCACCTCC)
- recombinant UMI read abundance (log10): 0.011

Sequence: ACGCCTCCATGGACCGGTTTTCCCGGTAATCCGTATTTGTG (site ACGCCTCCTCA)
- recombinant UMI read abundance (log10): 0.0426

Sequence: ACGCGCACATGGACCGGTTTTCCCGGTAATCCGTATTTGCG (site ACGCGCACTCG)
- recombinant UMI read abundance (log10): 1.97

Sequence: ACGGCCCCATGGACCGGTTTTCCCGGTAATCCGTATTTGTG (site ACGGCCCCTCA)
- recombinant UMI read abundance (log10): 0.0276

Sequence: ACGGCCGCATGGACCGGTTTTCCCGGTAATCCGTATTTGAA (site ACGGCCGCTTT)
- recombinant UMI read abundance (log10): 1.43

Sequence: ACGGCGTCATGGACCGGTTTTCCCGGTAATCCGTATTTGGT (site ACGGCGTCTAC)
- recombinant UMI read abundance (log10): 2.01

Sequence: ACGGGACCATGGACCGGTTTTCCCGGTAATCCGTATTTGTC (site ACGGGACCTGA)
- recombinant UMI read abundance (log10): 0

Sequence: ACGGGCGCATGGACCGGTTTTCCCGGTAATCCGTATTTGTT (site ACGGGCGCTAA)
- recombinant UMI read abundance (log10): 1.39

Sequence: ACGGTAGCATGGACCGGTTTTCCCGGTAATCCGTATTTGCA (site ACAGTATCTTG)
- recombinant UMI read abundance (log10): 2.05

Sequence: ACGGTAGCATGGACCGGTTTTCCCGGTAATCCGTATTTGCA (site ACGGTAGCTTG)
- recombinant UMI read abundance (log10): 2.74

Sequence: ACGTAGCCATGGACCGGTTTTCCCGGTAATCCGTATTTGCC (site ACGTAGCCTGG)
- recombinant UMI read abundance (log10): 0.17

Sequence: ACGTCACCATGGACCGGTTTTCCCGGTAATCCGTATTTGTA (site ACGTCACCTTA)
- recombinant UMI read abundance (log10): 0.0617

Sequence: ACGTGCACATGGACCGGTTTTCCCGGTAATCCGTATTTGGG (site ACGTGCACTCC)
- recombinant UMI read abundance (log10): 0.0159

Sequence: ACGTGGCCATGGACCGGTTTTCCCGGTAATCCGTATTTGAG (site ACGTGGCCTCT)
- recombinant UMI read abundance (log10): 0.0124

Sequence: ACGTGTACATGGACCGGTTTTCCCGGTAATCCGTATTTGTT (site ACGTGTACTAA)
- recombinant UMI read abundance (log10): 1.47

Sequence: ACGTGTTCATGGACCGGTTTTCCCGGTAATCCGTATTTGAC (site ACGTGTTCTGT)
- recombinant UMI read abundance (log10): 2.1

Sequence: ACGTTCCCATGGACCGGTTTTCCCGGTAATCCGTATTTGTG (site AAGTTCCCTCA)
- recombinant UMI read abundance (log10): 0.0189

Sequence: ACGTTCCCATGGACCGGTTTTCCCGGTAATCCGTATTTGTG (site ACGTTCCCTCA)
- recombinant UMI read abundance (log10): 0.0247

Sequence: ACGTTCCCATGGACCGGTTTTCCCGGTAATCCGTATTTGTG (site AGGTTCCCTCA)
- recombinant UMI read abundance (log10): 0.0827

Sequence: ACGTTCCCATGGACCGGTTTTCCCGGTAATCCGTATTTGTG (site ATGTTCCCTCA)
- recombinant UMI read abundance (log10): 0.0196
